# Source: US7618988B2, “Use of substituted aminomethyl chromans” (Merck Patentgesellschaft, priority 2001, dated 2009)
# How the values were obtained:
# Parkinson patients = settings: literature; cited from earlier work
# cataleptic rat = assay: reversal of catalepsy in rats; assay type: in vivo; settings: subcutaneous; for ED50: Rattus norvegicus, sc, read-out: ED50 (calculated dose to reverse catalepsy by 50%)
# Experimental: R represents hydrogen or a hydroxyl protecting group, and their optical isomers and pharmaceutically acceptable salts, in particular 2-({[5-(4-fluorophenyl)-pyridin-3ylmethyl]-amino}-methyl)-chroman-4-ol or an optical isomer or a physiologically acceptable salt or solvate thereof, excert an extraordinary potency in reversing catalepsy. Extrapyramidal motor side effects in e.g. rodents are measured by the ability of a drug to induce catalepsy. Catalepsy is defined as a state where an animal continues to remain in an unnormal (nonphysiological ‘uncomfortable’) posture for a long time (e.g.: M. E. Stanley and S. D. Glick, Neuropharmacology, 1996; 15: 393-394; C. J. E. Niemegeers and P. Janssen, Life Sci., 1979, […]). For example, if a hindpaw of a rat is placed on an elevated level, e.g. a platform elevated 3 cm above ground level, a normal rat immediately withdraws the hindpaw from the platform to the ground level. A cataleptic rat remains in this unnatural posture even for minutes.
# dopamine D4 receptors = dopamine D4 receptors (Homo sapiens, UniProt P21917); settings: literature statement; cited from earlier work
# dopamine D4 receptors, sequence (P21917 whole entry): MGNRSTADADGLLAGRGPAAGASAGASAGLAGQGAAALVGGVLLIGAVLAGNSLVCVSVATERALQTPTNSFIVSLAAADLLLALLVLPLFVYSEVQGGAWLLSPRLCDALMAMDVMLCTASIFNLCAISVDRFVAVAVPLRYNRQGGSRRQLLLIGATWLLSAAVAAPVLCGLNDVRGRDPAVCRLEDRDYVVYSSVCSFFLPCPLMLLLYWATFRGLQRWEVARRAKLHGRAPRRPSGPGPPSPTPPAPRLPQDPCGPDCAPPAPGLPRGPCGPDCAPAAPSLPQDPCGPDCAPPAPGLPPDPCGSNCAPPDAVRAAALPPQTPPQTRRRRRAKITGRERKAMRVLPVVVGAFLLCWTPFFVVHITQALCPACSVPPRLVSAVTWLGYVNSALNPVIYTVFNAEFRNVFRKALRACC
# parkinsonian monkeys = settings: literature; cited from earlier work
# [1] = test system: patients with idiopathic Parkinson's disease; assay: double-blind study, idiopathic Parkinson's disease; assay type: in vivo, human; settings: add on, 2.5 to 10 mg b.i.d.
# Description: A typical study to investigate the efficacy of the compounds according to the invention in the treatment of idiopathic Parkinson's disease is described in the following. 180 patients of either sex with idiopathic Parkinson's disease participate in a double-blind study. The main inclusion criteria are Hoehn & Yahr stage ≧2.0 (Hoehn H. M. et al, Neurology 1967; 17: 427442), aged 50-80 years, symptom duration of at least 5 years. (2R,4R)-2-({[5-(4-fluorophenyl)-pyridin-3ylmethyl]-amino}-methyl)-chroman-4-ol monohydrochloride hemihydrate or placebo is administered as “add on” to the conventional Parkinson treatment, which is maintained unchanged during the whole study. The dose of blinded medication is titrated over a period of 4 weeks in a range from 2.5 to 10 mg b.i.d. Then the medication is kept constant for 1 week. Before the start of titration and at the end of the treatment period the patients fill a diary card in 30 min. intervals for 48 hours. The diary card differentiates 5 different states: (1) “on” without dyskinesia, (2) “on” with troublesome dyskinesia, (3) “on” with non-troublesome dyskinesia, (4) “off” time, and (5) time asleep (Hauser R A et al., Clin. Neuropharmacol., 2000, 23, 75-81). […]
# [2] = test system: patients with advanced idiopathic Parkinson's disease; assay: double-blind study, advanced idiopathic Parkinson's disease with peak-dose dyskinesia; assay type: in vivo, human; settings: add on, 2.5 to 10 mg b.i.d., diary card
# Description: A typical study to investigate the efficacy of the compounds according to the invention for adverse effects in Parkinson's disease is described in the following. 40 patients of either sex with advanced idiopathic Parkinson's disease complicated by “peak-dose” dyskinesia participate in a double-blind study. The main inclusion criteria are Hoehn & Yahr stage ≧2.5 (lit.: Hoehn H. M. et al, Neurology 1967; 17: 427-442), aged 40-75 years, symptom duration of at least 5 years, and a l-dopa treatment duration of at least 3 years. (2R,4R)-2-({[5-(4-fluorophenyl)-pyridin-3ylmethyl]-amino}-methyl)-chroman-4-ol monohydrochloride hemihydrate or placebo is administered as “add on” to the conventional Parkinson treatment, which is maintained unchanged during the whole study. The dose of blinded medication is titrated over a period of 3 weeks in a range from 2.5 to 10 mg b.i.d. Then the medication is kept constant for 3 weeks. Before the start of titration and at the end of the treatment period the patients fill a diary card in 30 min. inervals for 48 hours. The diary card differentiates 5 different states: (1) “on” without dyskinesia, (2) “on” with troublesome dyskinesia, (3) “on” with non-troublesome dyskinesia, (4) “off” time, and (5) time asleep (Hauser R A et al., Clin. Neuropharmacol., 2000, 23, 75-81). The primary outcome variable of the protocol is the change in “on” time with troublesome dyskinesia. […] The other parameters are not changed.
# MSA patients = assay: study in MSA patients (UPDRS); assay type: in vivo, human; settings: add on, 2,5 to 20 mg b.i.d.
# Experimental: The study design is similar to that described above for Parkinson's disease. (2R,4R)-2-({[5-(4-fluorophenyl)-pyridin-3ylmethyl]-amino}-methyl)-chroman-4-ol monohydrochloride hemihydrate or placebo is titrated as “add on” to the conventional treatment (dose range 2,5 to 20 mg b.i.d.). After a double-blind dose-finding phase of 3 weeks during which the individual dose is identified for each patient on the basis of tolerability and efficacy, the dose is maintained unchanged for 3 additional weeks. Before the start of titration and at the end of the treatment period a complete UPDRS assessment is performed in each patient (primary outcome measure).
# [3] = test system: schizophrenic inpatients on long-term antipsychotic treatment; assay: study in tardive dyskinesia (AIMS); assay type: in vivo, human; settings: add on, 2,5 to 20 mg b.i.d., vs placebo period
# Description: Tardive dyskinesia is a common adverse effect of long-term treatment with neuroleptics. A typical study to investigate the efficacy of the compounds according to the invention in tardive dyskinesia is described in the following. 32 schizophrenic (DSM-III-R) inpatients aged 25-60 years on long-term stable antipsychotic treatment (duration of at least 5 years) entered the study. (2R,4R)-2-({[5-(4-fluorophenyl)-pyridin-3ylmethyl]-amino}-methyl)-chroman-4-ol monohydrochloride hemihydrate or placebo is administered as “add on” to the antipsychotic treatment, which is kept constant during the whole study. The dose of blinded medication is titrated over a period of 3 weeks in a range from 2,5 to 20 mg b.i.d. Then the medication is maintained under double-blind conditions for 2 weeks. After a 2-week wash-out period, the test drugs are crossed over. Assessments of tardive dyskinesia by means of the Abnormal Involuntary Movement Scale (AIMS, see above) and of Parkinsonian extrapyramidal side effects (UPDRS, see above) are made pretreatment and posttreatment.
molecule,measurement,setting,value
O=C1CC2(CCCC2)CC(=O)N1CCCCN1CCN(c2ncccn2)CC1 [buspirone],anti-dyskinetic effect,Parkinson patients,moderate anti-dyskinetic properties
same,ED50,cataleptic rat,6 mg/kg
"Cc1ccc2c(c1)C(N1CCN(C)CC1)=Nc1cccnc1N2 [8-methyl-6-(4-methyl-1-piperazineyl)-11 H-pyrido[2,3-b][1,4,]benzodiazepine]",selectivity for the dopamine D4 receptor compared to clozapine,dopamine D4 receptors,much increased selectivity
same,ED50 (calculated dose to reverse catalepsy by 50%),cataleptic rat,3 mg/kg
same,effects in parkinsonian monkeys,parkinsonian monkeys,beneficial effects
O=C1c2ccccc2S(=O)(=O)N1CCCCN1CCN(c2ncccn2)CC1 [ipsapirone],ED50,cataleptic rat,10 mg/kg
"(2R,4R)-2-({[5-(4-fluorophenyl)-pyridin-3ylmethyl]-amino}-methyl)-chroman-4-ol monohydrochloride hemihydrate",clinical improvement,[1],significant clinical improvement
same,efficacy to treat tremor,[1],efficacy to treat tremor is shown
same,other diary parameters,[2],not changed
same,“on” time with troublesome dyskinesia,[2],significant reduction
same,“on” time without dyskinesia,[2],significantly increase
same,"UPDRS, Parkinson symptoms",MSA patients,significant clinical improvement of Parkinson symptoms
same,AIMS scores,[3],significantly lower than during placebo period
